In ChEMBL document CHEMBL1201862, “PubChem BioAssay data set” (2004):
Activity calls are given as the source filed them.

Tests used:
[1] = target: T1, Sentrin-specific protease 7 (Homo sapiens, UniProt Q9BQF6); format: functional;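 also: Luminescence-based dose-response confirmation of ultra-high-throughput screening hits, measuring inhibition of SENP7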
T1 sequence (Q9BQF6 whole entry): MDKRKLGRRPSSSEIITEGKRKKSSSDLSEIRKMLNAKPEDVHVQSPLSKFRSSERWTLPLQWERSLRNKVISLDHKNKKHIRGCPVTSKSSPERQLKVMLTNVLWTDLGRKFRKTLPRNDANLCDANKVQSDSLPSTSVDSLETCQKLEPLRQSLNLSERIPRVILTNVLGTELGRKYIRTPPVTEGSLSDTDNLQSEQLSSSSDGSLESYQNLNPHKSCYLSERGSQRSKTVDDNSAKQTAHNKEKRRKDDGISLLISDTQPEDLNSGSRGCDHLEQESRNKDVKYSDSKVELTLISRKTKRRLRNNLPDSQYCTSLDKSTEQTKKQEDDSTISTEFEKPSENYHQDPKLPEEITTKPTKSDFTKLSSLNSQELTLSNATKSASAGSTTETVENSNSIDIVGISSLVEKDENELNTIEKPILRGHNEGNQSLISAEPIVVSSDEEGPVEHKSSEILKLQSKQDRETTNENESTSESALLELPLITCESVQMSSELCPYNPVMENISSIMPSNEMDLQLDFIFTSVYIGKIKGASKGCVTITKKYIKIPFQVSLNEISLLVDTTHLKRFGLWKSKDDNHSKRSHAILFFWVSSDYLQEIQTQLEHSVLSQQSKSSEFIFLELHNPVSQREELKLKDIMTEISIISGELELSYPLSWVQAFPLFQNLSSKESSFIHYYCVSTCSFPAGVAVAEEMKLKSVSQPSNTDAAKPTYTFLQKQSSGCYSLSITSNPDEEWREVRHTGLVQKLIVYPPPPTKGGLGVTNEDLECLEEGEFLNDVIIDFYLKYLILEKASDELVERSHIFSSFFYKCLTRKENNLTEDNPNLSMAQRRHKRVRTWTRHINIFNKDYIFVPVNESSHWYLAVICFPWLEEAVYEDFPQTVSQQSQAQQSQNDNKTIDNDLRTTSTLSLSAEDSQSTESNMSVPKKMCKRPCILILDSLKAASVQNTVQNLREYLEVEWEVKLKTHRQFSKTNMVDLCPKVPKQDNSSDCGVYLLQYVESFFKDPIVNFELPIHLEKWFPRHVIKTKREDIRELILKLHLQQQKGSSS

[2] = target: T2, Protein skinhead-1 (Caenorhabditis elegans, UniProt P34707); format: functional
T2 sequence (P34707 whole entry): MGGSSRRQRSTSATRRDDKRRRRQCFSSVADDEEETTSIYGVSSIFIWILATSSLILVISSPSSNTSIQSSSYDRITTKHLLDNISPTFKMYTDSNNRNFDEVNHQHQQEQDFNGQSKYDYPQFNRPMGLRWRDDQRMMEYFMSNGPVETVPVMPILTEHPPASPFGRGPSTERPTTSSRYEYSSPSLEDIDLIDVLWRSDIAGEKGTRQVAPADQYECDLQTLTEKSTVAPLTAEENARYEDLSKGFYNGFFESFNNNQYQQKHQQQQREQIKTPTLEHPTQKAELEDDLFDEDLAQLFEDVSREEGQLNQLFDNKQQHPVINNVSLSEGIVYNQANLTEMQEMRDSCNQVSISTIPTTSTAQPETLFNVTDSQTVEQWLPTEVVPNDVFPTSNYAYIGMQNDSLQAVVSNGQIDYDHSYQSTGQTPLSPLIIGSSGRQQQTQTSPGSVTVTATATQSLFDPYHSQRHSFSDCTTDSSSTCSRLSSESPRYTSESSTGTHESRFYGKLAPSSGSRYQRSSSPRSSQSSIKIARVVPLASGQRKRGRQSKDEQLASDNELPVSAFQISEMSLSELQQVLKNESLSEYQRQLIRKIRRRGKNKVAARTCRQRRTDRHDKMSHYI

[3] = target: T3, Sentrin-specific protease 8 (Homo sapiens, UniProt Q96LD8); format: functional;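 also: luminescence read-out of SENP8 inhibition, dose-response confirmation following an ultra-high-throughput screen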
T3 sequence (Q96LD8 whole entry): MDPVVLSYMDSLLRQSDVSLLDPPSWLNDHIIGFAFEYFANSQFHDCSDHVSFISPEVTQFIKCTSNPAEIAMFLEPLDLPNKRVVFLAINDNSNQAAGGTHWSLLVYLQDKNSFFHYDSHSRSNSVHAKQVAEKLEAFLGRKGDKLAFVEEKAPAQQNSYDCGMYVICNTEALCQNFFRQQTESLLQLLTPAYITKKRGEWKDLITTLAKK

[4] = target: T4, Sentrin-specific protease 6 (Homo sapiens, UniProt Q9GZR1); format: functional;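 also: Luminescence-based dose-response confirmatory assay of SENP6 inhibition, following up an ultra-high-throughput screen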
T4 sequence (Q9GZR1 whole entry): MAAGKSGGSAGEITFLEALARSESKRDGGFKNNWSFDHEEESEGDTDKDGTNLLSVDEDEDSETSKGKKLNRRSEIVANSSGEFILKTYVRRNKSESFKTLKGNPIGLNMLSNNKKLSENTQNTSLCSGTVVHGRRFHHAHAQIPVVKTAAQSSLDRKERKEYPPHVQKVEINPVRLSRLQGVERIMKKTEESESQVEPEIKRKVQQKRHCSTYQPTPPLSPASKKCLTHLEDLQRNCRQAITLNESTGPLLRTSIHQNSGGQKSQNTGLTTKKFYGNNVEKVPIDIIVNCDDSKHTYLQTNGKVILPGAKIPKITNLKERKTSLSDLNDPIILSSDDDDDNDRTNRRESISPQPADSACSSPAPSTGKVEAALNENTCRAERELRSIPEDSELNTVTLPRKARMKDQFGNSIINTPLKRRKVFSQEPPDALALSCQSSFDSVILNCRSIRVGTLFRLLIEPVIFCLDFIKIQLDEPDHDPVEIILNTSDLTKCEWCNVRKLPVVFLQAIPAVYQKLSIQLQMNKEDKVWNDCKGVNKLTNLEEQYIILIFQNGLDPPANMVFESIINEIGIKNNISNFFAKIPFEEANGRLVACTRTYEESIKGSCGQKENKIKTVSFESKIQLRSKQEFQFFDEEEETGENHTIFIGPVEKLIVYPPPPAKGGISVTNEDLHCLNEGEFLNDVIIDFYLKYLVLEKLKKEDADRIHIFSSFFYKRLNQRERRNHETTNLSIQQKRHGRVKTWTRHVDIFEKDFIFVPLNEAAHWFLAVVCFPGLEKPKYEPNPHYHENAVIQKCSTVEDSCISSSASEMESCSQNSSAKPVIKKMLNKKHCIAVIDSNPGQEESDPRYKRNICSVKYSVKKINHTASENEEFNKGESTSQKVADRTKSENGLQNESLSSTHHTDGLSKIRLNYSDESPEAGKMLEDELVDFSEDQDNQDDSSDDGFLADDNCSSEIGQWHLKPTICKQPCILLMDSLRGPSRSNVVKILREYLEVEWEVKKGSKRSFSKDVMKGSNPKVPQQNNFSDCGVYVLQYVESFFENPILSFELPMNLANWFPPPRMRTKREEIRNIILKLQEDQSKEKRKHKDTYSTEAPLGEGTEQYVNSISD

[5] = target: T5, Caspase-3 (Homo sapiens, UniProt P42574); format: functional;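 also: Dose-response selectivity test against caspase-3 for candidate inhibitors of sentrin-specific proteases (SENPs)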
T5 sequence (P42574 whole entry): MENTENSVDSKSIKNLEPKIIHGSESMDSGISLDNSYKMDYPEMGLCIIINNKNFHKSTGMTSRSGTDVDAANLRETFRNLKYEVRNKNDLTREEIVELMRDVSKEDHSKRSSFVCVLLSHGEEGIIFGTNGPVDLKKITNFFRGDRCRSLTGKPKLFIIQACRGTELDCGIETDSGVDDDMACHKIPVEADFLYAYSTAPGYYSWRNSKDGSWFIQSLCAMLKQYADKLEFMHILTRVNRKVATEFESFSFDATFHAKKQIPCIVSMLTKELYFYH

[6] = target: T6, Polyadenylate-binding protein 1 (Homo sapiens, UniProt P11940); experiment: MLLE domain peptide-binding blockers, IC50 – biochemical, fluorescence polarization, FITC-PAM2 peptide, dose response (AID 602259); format: functional; conditions: read-out: IC50_Mean
[7] = target: T6, Polyadenylate-binding protein 1; experiment: MLLE binding blockers, Cy5 peptide tracer – biochemical, fluorescence polarization, Cy5-PAM2 peptide, secondary, miRNA deadenylation inhibitor project, dose response (AID 602260); format: functional; conditions: read-out: IC50_Mean
[8] = target: Adenosylmethionine-8-amino-7-oxononanoate aminotransferase (Mycobacterium tuberculosis, UniProt P9WQ81); experiment: Mycobacterium tuberculosis BioA enzyme inhibitor Measured in Biochemical System Using Plate Reader - 2163-02_Inhibitor_Dose_CherryPick_Activity.; format: functional, Mycobacterium tuberculosis UT205
[9] = target: Nuclear receptor subfamily 5 group A member 2 (Homo sapiens, UniProt O00482); format: functional, cell-based;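 also: HEK293T cells transfected with LRH-1 and a StAR promoter luciferase reporter; potency for inhibitors that lower LRH-1 driven reporter light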
[10] = nonselective StAR promoter luciferase inhibitors – cell-based, luminescence, luciferase reporter, counter-screen for LRH-1 inverse agonist project, dose response (AID 651969); format: functional
[11] = target: Steroidogenic factor 1 (Homo sapiens, UniProt Q13285); experiment: Counterscreen for inverse agonists of the liver receptor homolog-1 (LRH-1; NR5A2): Luminescence-based cell-based high throughput dose response assay to identify inverse agonists of the Steroidogenic Factor 1 Nuclear Receptor (SF1; NR5A1).; format: functional
[12] = target: Dual specificity protein phosphatase 3 (Homo sapiens, UniProt P51452); experiment: VHR phosphatase inhibition, dose response, selectivity assay for STEP inhibitor project, biochemical (AID 602374); format: functional; conditions: read-out: IC50_Mean
[13] = target: Tyrosine-protein phosphatase non-receptor type 5 (Homo sapiens, UniProt P54829); experiment: PTPN5 enzyme inhibition – biochemical, fluorescence intensity, uHTS hits, confirmation (AID 602372); format: functional; conditions: read-out: IC50_Mean
[14] = target: Tyrosine-protein phosphatase non-receptor type 11 (Homo sapiens, UniProt Q06124); experiment: PTPN11 enzyme inhibitors – biochemical, selectivity assay for STEP inhibitor project, dose response (AID 602367); format: functional; conditions: read-out: IC50_Mean
Sequence of Tyrosine-protein phosphatase non-receptor type 11 (Q06124 whole entry): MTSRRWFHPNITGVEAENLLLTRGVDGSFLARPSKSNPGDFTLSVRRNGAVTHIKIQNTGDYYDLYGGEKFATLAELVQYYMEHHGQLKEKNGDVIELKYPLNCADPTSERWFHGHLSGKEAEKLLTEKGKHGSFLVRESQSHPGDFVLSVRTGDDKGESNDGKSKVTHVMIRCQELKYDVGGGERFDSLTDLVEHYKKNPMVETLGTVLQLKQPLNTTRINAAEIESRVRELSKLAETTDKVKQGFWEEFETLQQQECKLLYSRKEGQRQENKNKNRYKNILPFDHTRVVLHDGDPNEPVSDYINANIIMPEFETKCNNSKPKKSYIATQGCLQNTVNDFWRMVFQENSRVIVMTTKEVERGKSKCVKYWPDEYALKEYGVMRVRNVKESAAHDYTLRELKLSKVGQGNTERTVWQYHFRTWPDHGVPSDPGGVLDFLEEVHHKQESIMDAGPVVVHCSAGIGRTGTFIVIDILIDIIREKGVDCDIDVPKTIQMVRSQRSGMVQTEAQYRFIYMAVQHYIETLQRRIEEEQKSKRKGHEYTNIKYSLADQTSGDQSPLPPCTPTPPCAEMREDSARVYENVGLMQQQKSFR

T6 sequence (P11940 whole entry, the tested form may be a part): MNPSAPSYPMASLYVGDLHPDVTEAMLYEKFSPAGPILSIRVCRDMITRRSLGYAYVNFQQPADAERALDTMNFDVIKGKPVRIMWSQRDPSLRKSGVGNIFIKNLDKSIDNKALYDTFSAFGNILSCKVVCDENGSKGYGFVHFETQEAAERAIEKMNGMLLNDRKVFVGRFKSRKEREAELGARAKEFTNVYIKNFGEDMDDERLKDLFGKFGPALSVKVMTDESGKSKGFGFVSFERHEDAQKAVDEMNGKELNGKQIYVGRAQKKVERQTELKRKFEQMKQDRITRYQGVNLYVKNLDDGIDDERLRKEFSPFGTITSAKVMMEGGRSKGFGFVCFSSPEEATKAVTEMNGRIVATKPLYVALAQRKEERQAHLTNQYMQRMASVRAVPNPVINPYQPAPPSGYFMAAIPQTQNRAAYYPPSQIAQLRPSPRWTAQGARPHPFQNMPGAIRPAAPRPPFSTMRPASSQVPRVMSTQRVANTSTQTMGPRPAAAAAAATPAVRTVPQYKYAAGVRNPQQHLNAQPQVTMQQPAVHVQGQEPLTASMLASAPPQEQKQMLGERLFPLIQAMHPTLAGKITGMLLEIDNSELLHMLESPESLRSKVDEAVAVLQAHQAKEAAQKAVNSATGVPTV
Sequence of Nuclear receptor subfamily 5 group A member 2 (O00482 whole entry): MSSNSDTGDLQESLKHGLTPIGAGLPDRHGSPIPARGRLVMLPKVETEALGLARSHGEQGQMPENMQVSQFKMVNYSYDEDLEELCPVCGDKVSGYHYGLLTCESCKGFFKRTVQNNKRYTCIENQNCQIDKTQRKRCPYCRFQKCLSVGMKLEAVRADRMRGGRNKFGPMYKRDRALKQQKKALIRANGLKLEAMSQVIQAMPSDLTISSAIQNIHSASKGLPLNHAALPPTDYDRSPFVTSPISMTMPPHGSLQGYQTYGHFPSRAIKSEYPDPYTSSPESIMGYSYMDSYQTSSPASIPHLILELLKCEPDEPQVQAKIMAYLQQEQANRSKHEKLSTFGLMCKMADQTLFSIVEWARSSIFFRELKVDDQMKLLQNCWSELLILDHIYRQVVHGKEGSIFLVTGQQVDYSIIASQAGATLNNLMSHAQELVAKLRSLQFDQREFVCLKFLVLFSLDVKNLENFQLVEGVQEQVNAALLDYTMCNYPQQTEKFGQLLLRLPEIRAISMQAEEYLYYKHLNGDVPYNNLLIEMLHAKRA
Sequence of Steroidogenic factor 1 (Q13285 whole entry): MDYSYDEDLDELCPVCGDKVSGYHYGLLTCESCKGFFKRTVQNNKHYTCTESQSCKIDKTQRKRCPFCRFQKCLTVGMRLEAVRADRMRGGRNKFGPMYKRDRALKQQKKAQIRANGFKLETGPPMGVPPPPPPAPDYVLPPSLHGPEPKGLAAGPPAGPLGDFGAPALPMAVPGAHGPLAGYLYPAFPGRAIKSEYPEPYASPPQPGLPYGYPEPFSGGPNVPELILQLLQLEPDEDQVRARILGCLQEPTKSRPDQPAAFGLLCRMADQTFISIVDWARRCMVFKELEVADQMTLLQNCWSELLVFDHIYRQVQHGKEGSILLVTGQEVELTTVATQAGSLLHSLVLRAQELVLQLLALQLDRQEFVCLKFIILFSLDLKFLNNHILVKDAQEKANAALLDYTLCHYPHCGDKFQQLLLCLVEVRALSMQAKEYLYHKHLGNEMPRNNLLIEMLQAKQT
Sequence of Dual specificity protein phosphatase 3 (P51452 whole entry): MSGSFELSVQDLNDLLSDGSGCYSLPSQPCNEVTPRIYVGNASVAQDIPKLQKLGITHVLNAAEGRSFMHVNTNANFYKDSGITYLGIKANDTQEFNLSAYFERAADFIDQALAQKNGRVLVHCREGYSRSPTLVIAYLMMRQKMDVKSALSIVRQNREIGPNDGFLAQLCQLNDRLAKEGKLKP
Sequence of Adenosylmethionine-8-amino-7-oxononanoate aminotransferase (P9WQ81 whole entry): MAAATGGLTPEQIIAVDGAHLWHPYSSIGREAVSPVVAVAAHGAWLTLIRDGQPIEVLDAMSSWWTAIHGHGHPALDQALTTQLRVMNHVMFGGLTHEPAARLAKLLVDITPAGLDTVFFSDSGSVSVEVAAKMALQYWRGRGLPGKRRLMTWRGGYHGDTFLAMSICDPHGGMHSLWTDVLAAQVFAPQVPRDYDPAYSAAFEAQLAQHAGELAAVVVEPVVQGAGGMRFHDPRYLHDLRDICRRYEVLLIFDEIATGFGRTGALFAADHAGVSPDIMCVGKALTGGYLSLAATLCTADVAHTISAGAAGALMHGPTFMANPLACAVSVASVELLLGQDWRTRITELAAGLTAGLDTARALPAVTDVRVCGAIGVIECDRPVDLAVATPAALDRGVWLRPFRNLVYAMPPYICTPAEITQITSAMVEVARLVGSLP
Sequence of Tyrosine-protein phosphatase non-receptor type 5 (P54829 whole entry): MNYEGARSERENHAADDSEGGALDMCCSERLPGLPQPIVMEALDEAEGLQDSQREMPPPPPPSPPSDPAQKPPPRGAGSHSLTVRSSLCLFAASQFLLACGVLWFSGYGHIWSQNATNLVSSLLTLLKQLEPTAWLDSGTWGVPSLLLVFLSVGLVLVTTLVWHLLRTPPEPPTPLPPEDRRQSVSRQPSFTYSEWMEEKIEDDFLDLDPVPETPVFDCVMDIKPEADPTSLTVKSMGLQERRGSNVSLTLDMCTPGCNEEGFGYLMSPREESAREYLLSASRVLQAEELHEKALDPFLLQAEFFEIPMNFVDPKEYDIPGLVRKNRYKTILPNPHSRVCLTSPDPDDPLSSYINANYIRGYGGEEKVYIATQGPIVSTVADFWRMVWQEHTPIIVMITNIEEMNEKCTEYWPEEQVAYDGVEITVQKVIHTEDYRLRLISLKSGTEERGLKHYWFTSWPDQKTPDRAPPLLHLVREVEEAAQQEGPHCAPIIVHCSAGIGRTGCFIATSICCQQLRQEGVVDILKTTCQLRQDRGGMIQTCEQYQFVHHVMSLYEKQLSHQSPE

Q: With `O=c1c2ccccc2oc2ccc(-c3ccc4[nH]ccc4c3)cc12` as the compound, how does the IC50 [1] read?
A: Its IC50 is 6.1 µM (active).

Q: And the IC50 [2]?
A: Its IC50 is 4.77 µM (active).

Q: And the IC50 [3]?
A: The IC50 was > 100 µM (inactive).

Q: What about the IC50 [4] of the same compound?
A: Its IC50 is 33.7 µM (active).

Q: What about the IC50 [5] of the same compound?
A: Its IC50 is 75.1 µM (active).

Q: With `CCOC(S)=NC(=NS(C)(=O)=O)c1ccccc1` as the compound, how does the IC50 [6] read?
A: The IC50 was > 66 µM (inactive).

Q: And the IC50 [7]?
A: The IC50 was > 66 µM (inactive).

Q: With `O=C(O)c1cccc(NC(=O)c2ccc(COc3ccc(Cl)cc3)cc2)c1` as the compound, how does the IC50 [1] read?
A: The IC50 was 21.8 µM (active).

Q: What about the IC50 [3] of the same compound?
A: Its IC50 is 41 µM (active).

Q: What about the IC50 [4] of the same compound?
A: The IC50 was 16.7 µM (active).

Q: What about the IC50 [5] of the same compound?
A: Its IC50 is > 100 µM (inactive).

Q: Which AC50 [8] does the source give for `CNC(=O)C[C@H]1CC[C@@H]2[C@H](COC[C@@H](O)CN2C(=O)Nc2ccc(Cl)c(Cl)c2)O1` here?
A: Its AC50 is 1.88 µM (active).

Q: What does the source list for `CCCNC(=O)c1sc2c(c1C(=O)Nc1ccccn1)CCCC2`?
A: IC50 [9]: 14.5 µM (inactive); IC50 [10]: 35.9 µM (inactive); IC50 [11]: 8.39 µM (active)

Q: For `S=C(NCCCN1CCOCC1)Nc1ccc(-c2nc3ccccc3[nH]2)cc1`, which IC50 [12] is on record?
A: The IC50 was 3.03 µM (active).

Q: And the IC50 [13]?
A: Its IC50 is 56.7 µM (inactive).

Q: And the IC50 [14]?
A: The IC50 was 3.45 µM (active).
